Test results taken from patent US20090197897A1, “Novel Oxadiazole Derivatives and Their Use as Positive Allosteric Modulators of Metabotropic Glutamate Receptors” (Addex Pharma SA, priority 2005, published 2009).

Key:
[1] = target: T1, rat mGluR5 (Rattus norvegicus, UniProt P31424); experiment: mGluR5 assay on HEK-expressing rat mGluR5 (fluorescent cell based Ca2+ mobilization assay); conditions: HEK-293 cells stably expressing rat mGluR5; no co-addition of glutamate; mean of at least three independent experiments in duplicate; read-out: Ca++ Flux (mean EC50)
T1 construct: expressed in transfected cells
T1 sequence (P31424 21-1171 isoform P31424-2 limits assumed): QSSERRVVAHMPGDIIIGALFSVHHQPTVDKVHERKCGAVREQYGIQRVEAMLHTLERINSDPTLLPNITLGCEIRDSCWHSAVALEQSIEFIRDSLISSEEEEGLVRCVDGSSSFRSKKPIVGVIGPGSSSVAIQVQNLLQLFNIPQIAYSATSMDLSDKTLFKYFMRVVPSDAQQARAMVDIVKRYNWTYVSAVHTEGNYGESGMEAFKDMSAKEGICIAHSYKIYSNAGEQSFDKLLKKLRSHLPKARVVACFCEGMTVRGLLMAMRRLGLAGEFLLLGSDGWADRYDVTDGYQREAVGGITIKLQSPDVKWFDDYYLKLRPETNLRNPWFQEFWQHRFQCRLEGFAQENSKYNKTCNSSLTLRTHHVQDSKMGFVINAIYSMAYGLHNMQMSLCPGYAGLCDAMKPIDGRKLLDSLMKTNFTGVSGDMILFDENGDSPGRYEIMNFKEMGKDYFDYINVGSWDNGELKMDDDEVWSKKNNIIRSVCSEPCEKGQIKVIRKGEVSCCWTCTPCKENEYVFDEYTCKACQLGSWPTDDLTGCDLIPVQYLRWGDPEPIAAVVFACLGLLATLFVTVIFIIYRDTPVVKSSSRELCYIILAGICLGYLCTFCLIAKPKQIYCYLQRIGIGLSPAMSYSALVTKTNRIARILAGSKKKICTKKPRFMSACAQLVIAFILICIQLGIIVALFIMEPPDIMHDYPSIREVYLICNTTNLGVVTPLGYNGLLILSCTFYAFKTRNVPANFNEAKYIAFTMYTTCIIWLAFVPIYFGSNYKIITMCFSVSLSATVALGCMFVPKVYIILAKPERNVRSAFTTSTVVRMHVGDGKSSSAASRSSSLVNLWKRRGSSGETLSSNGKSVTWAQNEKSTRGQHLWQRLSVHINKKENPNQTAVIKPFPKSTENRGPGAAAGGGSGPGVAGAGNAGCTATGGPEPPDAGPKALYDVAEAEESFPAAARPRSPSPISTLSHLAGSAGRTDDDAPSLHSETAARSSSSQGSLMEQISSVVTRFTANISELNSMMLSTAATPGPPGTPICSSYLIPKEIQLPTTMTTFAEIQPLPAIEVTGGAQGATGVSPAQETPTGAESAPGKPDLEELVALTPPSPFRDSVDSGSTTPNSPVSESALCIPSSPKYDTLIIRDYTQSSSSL
Procedure: mGluR5 Assay on HEK-Expressing Rat mGluR5
Positive functional expression of HEK-293 cells stably expressing rat mGluR5 receptor was determined by measuring intracellular Ca^2+ changes using a Fluorometric Imaging Plate Reader (FLIPR, Molecular Devices, Sunnyvale, Calif.) in response to glutamate or selective known mGluR5 agonists and antagonists. Rat mGluR5 RT-PCR products in HEK-293 cells were sequenced and found 100% identical to rat mGluR5 Genbank reference sequence (NM_017012). HEK-293 cells expressing rmGluR5 were maintained in media containing DMEM, dialyzed Fetal Bovine Serum (10%), Glutamax™ (2 mM), Penicillin (100 units/ml), Streptomycin (100 μg/ml), Geneticin (100 μg/ml) and Hygromycin-B (40 μg/ml) at 37° C./5% CO2.
After one day of incubation, cells were washed with assay buffer containing: 142 mM NaCl, 6 mM KCl, 1 mM […], 1 mM CaCl2, 20 mM HEPES, 1 g/L glucose, 0.125 mM sulfinpyrazone, pH 7.4. After 60 min of loading with 4 uM Fluo-4 (TefLabs, Austin, Tex.), the cells were washed three times with 50 μl of PBS Buffer and resuspended in 45 μl of assay Buffer. The plates were then transferred to a Fluorometric Imaging Plate Reader (FLIPR, Molecular Devices, Sunnyvale, Calif.) for the assessment of intracellular calcium flux. After monitoring the baseline fluorescence for 10 seconds, increasing concentrations of representative compound (from 0.01 to 60 μM) of the present invention diluted in Assay Buffer (15 μl of 4× dilutions) was added to the cell. The final DMSO concentration in the assay was 0.3%. In each experiment, fluorescence was then monitored as a function of time for 3 minutes and the data analyzed using Microsoft Excel and GraphPad Prism. Each data point was also measured two times.
Under these experimental conditions, this HEK-rat mGluR5 cell line is able to directly detect positive allosteric modulators without the need of co-addition of glutamate or mGluR5 agonist.
The concentration-response curves of representative compounds of the present invention were generated using the Prism GraphPad software (Graph Pad Inc, San Diego, USA). The curves were fitted to a four-parameter logistic equation:
(Y=Bottom+(Top−Bottom)/(1+10̂((Log EC50−X)*Hill Slope)
allowing determination of EC50 values.
The Table 1 below represents the mean EC50 obtained from at least three independent experiments of selected molecules performed in duplicate.

Row | EC50 [1] [nM] | melting point [°C] | SMILES
1 | 1000 to 10000 | 98 to 100 | O=C(C1CCOCC1)N1CCC[C@H](c2nc(-c3ccc(F)cc3)no2)C1 [Example 9, {(S)-3-[3-(4-Fluoro-phenyl)-[1,2,4]oxadiazol-5-yl]-piperidin-1-yl}-(tetrahydro-pyran-4-yl)-methanone]
2 | 1000 to 10000 | 80 to 85 | O=C(C1CCCCC1)N1CCC[C@H](c2nc(-c3ccc(F)cc3)no2)C1 [Example 10, Cyclohexyl-{(S)-3-[3-(4-fluoro-phenyl)-[1,2,4]oxadiazol-5-yl]-piperidin-1-yl}-methanone]
3 | 1000 to 10000 | 158 to 163 | O=C(c1ccccc1)c1cccc(C(=O)N2CCC[C@H](c3nc(-c4ccc(F)cc4)no3)C2)c1 [Example 11, (3-Benzoyl-phenyl)-{(S)-3-[3-(4-fluoro-phenyl)-[1,2,4]oxadiazol-5-yl]-piperidin-1-yl}-methanone]
4 | 1000 to 10000 | 125 to 130 | O=C(c1c(F)cc(F)cc1F)N1CCC[C@H](c2nc(-c3ccc(F)cc3)no2)C1 [Example 12, {(S)-3-[3-(4-Fluoro-phenyl)-[1,2,4]oxadiazol-5-yl]-piperidin-1-yl}-(2,4,6-trifluoro-phenyl)-methanone]
5 | 1000 to 10000 | 115 to 116 | Cc1ncccc1C(=O)N1CCC[C@H](c2nc(-c3ccc(F)cc3)no2)C1 [Example 16, {(S)-3-[3-(4-Fluoro-phenyl)-[1,2,4]oxadiazol-5-yl]-piperidin-1-yl}-(2-methyl-pyridin-3-yl)-methanone]
6 | 1000 to 10000 | 122 to 126 | Cc1cc(C(=O)N2CCC[C@H](c3nc(-c4ccc(F)cc4)no3)C2)c(C)n1C [Example 17, {(S)-3-[3-(4-Fluoro-phenyl)-[1,2,4]oxadiazol-5-yl]-piperidin-1-yl}-(1,2,5-trimethyl-1H-pyrrol-3-yl)-methanone]
7 | < 1000 | 114 to 118 | Cc1cc(C(=O)N2CCC[C@H](c3nc(-c4ccc(F)cc4)no3)C2)c(C)o1 [Example 23, (2,5-Dimethyl-furan-3-yl)-{(S)-3-[3-(4-fluoro-phenyl)-[1,2,4]oxadiazol-5-yl]-piperidin-1-yl}-methanone]
8 | 1000 to 10000 | 57 to 60 | O=C(c1cccc2c1OCCO2)N1CCC[C@H](c2nc(-c3ccc(F)cc3)no2)C1 [Example 25, (S)-(2,3-Dihydro-benzo[1,4]dioxin-5-yl)-{3-[3-(4-fluoro-phenyl)-[1,2,4]oxadiazol-5-yl]-piperidin-1-yl}-methanone]
9 | 1000 to 10000 | 109 to 111 | COc1cc(C(=O)N2CCC[C@H](c3nc(-c4ccc(F)cc4)no3)C2)ccc1F [Example 26, (S)-(4-Fluoro-3-methoxy-phenyl)-{3-[3-(4-fluoro-phenyl)-[1,2,4]oxadiazol-5-yl]-piperidin-1-yl}-methanone]
10 | 1000 to 10000 | 59 to 63 | Cc1cnccc1C(=O)N1CCC[C@H](c2nc(-c3ccc(F)cc3)no2)C1 [Example 27, (S)-{3-[3-(4-Fluoro-phenyl)-[1,2,4]oxadiazol-5-yl]-piperidin-1-yl}-(3-methyl-pyridin-4-yl)-methanone]
11 | 1000 to 10000 | 167.5 to 168.9 | Cc1c[nH]cc1C(=O)N1CCC[C@H](c2nc(-c3ccc(F)cc3)no2)C1 [Example 43, {(S)-3-[3-(4-Fluoro-phenyl)-[1,2,4]oxadiazol-5-yl]-piperidin-1-yl}-(4-methyl-1H-pyrrol-3-yl)-methanone]
12 | < 1000 | 92 to 97 | O=C(c1ccc(F)c(F)c1)N1CCC[C@H](c2nc(-c3ccsc3)no2)C1 [Example 45, (3,4-Difluoro-phenyl)-[(S)-3-(3-thiophen-3-yl-[1,2,4]oxadiazol-5-yl)-piperidin-1-yl]-methanone]
13 | 1000 to 10000 | 118 to 120 | O=C(c1ccc(F)cc1)N1CCC[C@H](c2nc(-c3cscn3)no2)C1 [Example 50, (4-Fluoro-phenyl)-[(S)-3-(3-thiazol-4-yl-[1,2,4]oxadiazol-5-yl)-piperidin-1-yl]-methanone]
